From patent US11472846B2, “Compositions and methods for treating diseases by inhibiting exosome release” (priority 2016, dated 2022)
Like-named read-outs stand apart in the source and are kept apart here.

Columns and labels:
Type in all cases: cell-based, human
[1] = system: MDA-MB-231 exosomes; test: Western blot of exosomal proteins (Alix, vimentin, mortalin), MDA-MB-231; conditions: MDA-MB-231 cells, 48 hr treatment
Experimental: (§1) 7-7. Protein analysis by Western blotting. Exosomes were isolated from cell culture supernatants as described above. Protein concentrations were determined by measuring absorbance at 280 nm (Nanodrop 2000). Cultured cells were treated with PEG-SMR-Clu, SMR-CPP peptides, MKT-077, Omeprazole or DMA at 37° C. for 48 hr. To evaluate mortalin, vimentin and exosome expression, Western blot analysis was performed using anti-mortalin (Grp-75), anti-Vimentin and anti-Alix antibodies, respectively (FIG. 12).
(§2) Exosomes and cell lysates were prepared by incubating 5-10 min at 95° C. in sample buffer. The lysates were subjected to SDS-PAGE under reducing conditions (150 mM DTT) in 4-20% Criterion™ TGX™ precast gels (BioRad, Hercules, Calif.) and then transferred onto a nitrocellulose membrane (Bio-Rad, Hercules, Calif.). Nitrocellulose membranes were blocked with 5% skim milk (MedSupply, Atlanta, Ga.) in TBS containing 0.05% Tween 20 (TBST) for 1 h at room temperature. The membranes were treated with anti-mortalin (Grp-75) mAb or anti-α-tubulin mAb for cell lysates (FIG. 15, Panels A and B) or with anti-Alix and anti-vimentin or anti-mortalin for exosomes (FIG. 12), followed by peroxidase-conjugated goat anti-mouse IgG. Bands were developed with an ECL chemiluminescent substrate (Santa Cruz Biotechnology, Santa Cruz, Calif.) and exposed to an ImageQuant LAS 4000 imaging system (GE Healthcare, Piscataway, N.J. 08854).

[2] = system: MCF-7 cells; test: TUNEL apoptosis assay, MCF-7; conditions: 48 hours, MKT-077 500 nM/mL, DMA 300 μM/mL, Omeprazole 200 μM/mL, paclitaxel 1.6 uM/mL, cisplatin 2 mg/mL
Experimental: (§3) 7-8. Apoptosis assay by flow cytometry. For assessment of apoptosis, MCF-7 and MDA-MB-231 breast cancer cells and were seeded into 6-well plates at 4×10^5 cells per well and treated for 48 hours with 925 nM/mL of MKT-077 on MDA-MB-231 cells, 500 nM/mL of MKT-077 on MCF-7 cells, 337.5 nM/mL of MKT-077 on K562 cells, 300 μM/mL of DMA, 200 μM/mL of Omeprazole, 1.6 uM/mL of paclitaxel, 2 mg/mL of cisplatin, or combined treatment with either paclitaxel or cisplatin in combination with each of the three mortalin inhibitors. Apoptosis was determined using the TUNEL detection kit (Nexcelom, MA) and GUAVA easyCyte HT (EMD Millipore Corporation, Temecula, Calif.) system for fluorometric detection. (FIG. 13).

[3] = system: K562 exosomes; test: Western blot of exosomal proteins (Alix, vimentin, mortalin), K562; conditions: K562 cells, 48 hr treatment
Experimental: as §1, §2

[4] = system: MDA-MB-231 breast cancer cells; test: Exosome release by acetylcholinesterase (AchE) assay, MDA-MB-231; conditions: MDA-MB-231 cells, five-day treatment
Experimental: (§4) 1-6. Exosome isolation and purification. Exosomes were isolated from breast cancer cells by differential centrifugation as previously described (Ali SA. et al., 2010). Untreated tumor cells were used as a control. Briefly, the above treated and untreated cell culture supernatants were centrifuged at 400×g for 10 minutes. The supernatants were transferred to a clear tube and centrifuged at 10,000×g for 30 minutes. The supernatants from the second spin were ultracentrifuged at 200,000×g for 2 hours to pellet exosomes. Finally, the exosome pellets were re-suspended with PBS and stored at 4° C. until used for analysis.
(§5) 1-7. Exosome characterization by acetylcholinesterase (AchE) assay. Purified exosomes were quantitated by measurement of AchE as described (Ellman et al., 1961). Briefly, a 100 mM dithibionitrobenzoic (DTNB) solution was prepared for use as a stock color indicator, and a 28.9 mg/mL acetylthiocholine iodide in PBS solution was prepared as a stock substrate. The stock substrate stock can be stored at −20° C. up to one month, while the color indicator can be stored at 4° C. for two weeks. A working solution was prepared by mixing 10 mL of PBS with 200 μL of Substrate and 500 μl of DTNB. 50 μL of each exosome sample was transferred to 96 well microtitre plates, and a standard curve was prepared using AchE from 0.98 mU/mL to 2000 mU/mL. After 50 μL of standards were added into separate wells, 200 μL of the working solution was added to all wells. After 20 min incubation, AchE activity was measured at 450 nm using a SpectroMax M5 fluorimeter.
(§6) 7-5. Exosome isolation and purification. Exosomes were isolated from breast cancer cells and leukemia cells using the ExoQuick-TC Exosome Precipitation Kit (System Biosciencences [SBI], Mountain View Calif.) or the miRCURY Exosome Isolation Kit (EXIQON, Woburn, Mass.) according to the manufacturer's instructions. Untreated tumor cells were used as a control. Briefly, treated and untreated cell culture supernatants (10 mL) were centrifuged at 3000×g for 15 minutes. The resulting supernatants were transferred to a clear tube, 2 mL of ExoQuick-TC buffer was added, mixed and incubated overnight at 4° C. Following the incubation, the sample contents were centrifuged at 1500×g for 30 minutes, the supernatants were aspirated off, the pellets were centrifuged at 1500×g for 5 minutes and any further traces of supernatant were removed (SBI). Alternatively, treated and untreated cell culture supernatants were centrifuged at 10,000×g for 5 minutes to remove cell debris, supernatants (10 ml) were transferred into new tubes, and 4 mL of precipitation buffer (EXIQON) was added, and the contents were mixed and incubated at 4° C. overnight. Following the incubation, the sample contents were centrifuged at 10,000×g for 30 minutes (EXIQON). Exosome-containing pellets were re-suspended in PBS and stored at 4° C. or −80° C.
(§7) 7-6. Exosome characterization by acetylcholinesterase (AchE) assay. Purified exosomes were quantitated by measurement of AchE as previously described (Huang et al., Oncotarget, 2017. 8(7): pp. 11302-11315). Briefly, 100 mM dithibionitrobenzoic (DTNB) was prepared as a stock color indicator, and prepared a stock substrate containing 28.9 mg/mL of acetylthiocholine iodide in PBS. Substrate stock can be stored at −20° C. up to one month; the stock color indicator can be stored at 4° C. for two weeks. A working solution was prepared by mixing 10 mL of PBS with 200 μL of substrate and 500 μl of DTNB. 50 μL of each exosome sample was transferred to a 96 well microtitre plate, and a standard curve for AchE concentrations was prepared using AchE from 0.98 mU/mL to 2000 mU/mL. After 50 μL of standards were added into separate wells, 200 μL of the working solution was added to each well. After a 20 min incubation, AchE activity was measured at 450 nm using a SpectroMax M5 fluorometer (FIG. 11).

[5] = system: K562 cells; test: TUNEL apoptosis assay, K562; conditions: 48 hours, MKT-077 337.5 nM/mL, DMA 300 μM/mL, Omeprazole 200 μM/mL, paclitaxel 1.6 uM/mL, cisplatin 2 mg/mL
Experimental: as §3

[6] = system: exosomes from MCF-7 cells; test: Western blot of exosomal proteins (Alix, vimentin, mortalin), MCF-7; conditions: 48 hr treatment, vs negative controls
Experimental: as §1, §2

[7] = system: MDA-MB-231 cells; test: TUNEL apoptosis assay, MDA-MB-231; conditions: 48 hours, MKT-077 925 nM/mL, DMA 300 μM/mL, Omeprazole 200 μM/mL, paclitaxel 1.6 uM/mL, cisplatin 2 mg/mL
Experimental: as §3

[8] = system: MCF-7 breast cancer cells; test: Exosome release by acetylcholinesterase (AchE) assay, MCF-7; conditions: MCF-7 cells, five-day treatment
Experimental: as §4, §5, §6, §7

[9] = system: MDA-MB-231 breast cancer cells; test: MTT proliferation assay, MDA-MB-231; conditions: MDA-MB-231 cells
Experimental: (§8) 1-3. Viability and proliferation. Human breast cancer cell lines were seeded into 96-well plates (5000 cells/well) and treated for 24 hours with various concentrations of SMR peptides including PEG-SMRwt-Clu, PEG-SMRwt and PEG-SMRmut to determine IC50 (inhibition concentration). Cell proliferation was determined using the MTT assay (Molecular Devices, Sunnyvale, Calif.). Control experiments were performed with MTT treated cells alone and untreated cells, and on this basis, the incubation times of 24 hr and 48 hr were used for an MTT assay of peptide-treated cells (Stockerta JC. et al., 2012 and Riss TL. et al., 2015).
(§9) 7-4. Cell proliferation and cytotoxicity assay. Human breast cancer cell lines MCF-7, MDAMB-231, and leukemia K562 cells, and non-tumorigenic MCF-10A cells are seeded into 96-well plates (5000 cells/well) and treated for 24 hours with 0-1120 nM SMRwt-CPP or SMRmut-CPP (FIG. 10). Cell proliferation was determined using the MTT [3-(4,5-dimethylthiazol-2-yl)-2,5-diphenyltetrazolium bromide] dye assay by SpectraMax M5 Fluorescence Plate Reader (Molecular Devices. Sunnyvale, Calif.). Cell viability was estimated by the conversion of yellow MTT by mitochondrial dehydrogenases of living cells to purple formazon (MTT assay). Control experiments were performed with cells treated or untreated with MTT, and on this basis, an incubation time of 24 hours was used for MTT assays of peptide-treated cells (Huang, M. B., et al., Oncotarget, 2017. 8(7): pp. 11302-11315.). Statistical significance of results was determined from three independent experiments including triplet or quadruplet sets in each experiment.

[10] = system: MCF-7 breast cancer cells; test: MTT proliferation assay, MCF-7; conditions: MCF-7 cells
Experimental: as §8, §9

[11] = 24 hours, MTT, read-out: 50% inhibition of cell growth
[12] = 24 hours, read-out: SMR at IC50 concentration

Compound | Vimentin expression in exosomes [1] | apoptosis (TUNEL) [2] | Alix expression in exosomes [3] | Mortalin expression in exosomes [3] | Vimentin expression in exosomes [3] | average AChE concentration day 1 to 5 [4] | apoptosis (TUNEL) [5] | Alix expression in exosomes [6] | Mortalin expression in exosomes [6] | Vimentin expression in exosomes [6] | apoptosis (TUNEL) [7] | average AChE concentration days 1 to 5 [8] | other results
CN(C)c1nc(N)c(C(=O)NC(=N)N)nc1Cl [DMA, 5-(N,N-Dimethyl)amiloride] | significantly decreased | 11.83% | significantly decreased | significantly decreased | significantly | 37 mU/mL | 15.2% | not accompanied by significant reductions | no significant changes | significantly decreased | 30.43% | 26 mU/mL | –
CCn1c(=Cc2cccc[n+]2CC)sc(=C2Sc3ccccc3N2C)c1=O.[Cl-] [MKT-077, 1-Ethyl-2-[[3-ethyl-5-(3-methyl-2(3H)-benzothiazolylidene)-4-oxo-2-thiazolidinylidene]methyl]-pyridinium chloride] | no significant change | 90.1% | significantly decreased | significantly decreased | significantly | 29 mU/mL | 82.7% | significantly decreased | significantly decreased | significantly decreased | 52.13% | 22 mU/mL | Mortalin expression in exosomes [1]: No significant change
COc1ccc2[nH]c([S+]([O-])Cc3ncc(C)c(OC)c3C)nc2c1 (stereo not shown) [Omeprazole, 5-Methoxy-2-[[(4-methoxy-3,5-dimethyl-2-pyridinyl)methyl]sulfinyl]-1H-benzimidazole] | no significant change | 1.1% | significantly decreased | significantly decreased | significantly | 25 mU/mL | 6.1% | not accompanied by significant reductions | no significant changes | significantly decreased | 3.0% | 26 mU/mL | Mortalin expression in exosomes [1]: No significant change
N.N.[Cl][Pt][Cl] [cisplatin, reference compound] | – | – | – | – | – | – | – | – | – | – | – | – | experimentally determined IC50 dosage ([9]; data not shown): 2000 µg/mL; experimentally determined IC50 dosage ([10]; data not shown): 3000 µg/mL
CC(=O)O[C@H]1C(=O)[C@@]2(C)[C@H]([C@H](OC(=O)c3ccccc3)[C@]3(O)C[C@H](OC(=O)[C@H](O)[C@@H](NC(=O)c4ccccc4)c4ccccc4)C(C)=C1C3(C)C)[C@]1(OC(C)=O)CO[C@@H]1C[C@@H]2O [paclitaxel, reference compound] | – | – | – | – | – | – | – | – | – | – | – | – | IC50 ([9]; Homo sapiens, data not shown, read-out: experimentally determined IC50 dosage): 1600 nM; IC50 ([10]; Homo sapiens, MCF7, data not shown, read-out: experimentally determined IC50 dosage): 1600 nM
NXNVGFPVAAVGFPV (SEQ ID NO: 36) [PEG-SMRwt] | – | – | – | – | – | – | – | – | – | – | – | – | IC50 [9, 11]: 420 nM; IC50 [9, 12]: 420 nM; IC50 [10, 11]: 280 nM; IC50 [10, 12]: 280 nM
SMRmut-CPP (AGFPVAAAGFPVGRKKRRQRRRPPQ) [SEQ ID NO: 41] | – | – | – | – | – | – | – | – | – | – | – | – | AChE initial increase on day 1 ([4]; day 1, mock 146.52): 141.47 mU/mL; AchE concentration on day 3 ([8]; day 3, mock 69.15): 66.05 mU/mL; AchE concentration, initial increase ([8]; days 1 and/or 2, mock 155.13): 150.06 mU/mL
